# Measured values reported in EP0133934A2, “Pharmacologically active 1,3,4-thiadiazol-(3,2-a)-thieno-(2,3-d)-pyrimidin-5-(H)one derivatives” (NIKEPHARMA S.r.l., priority 1983, dated 1985).
# Like-named read-outs stand apart in the source and are kept apart here.
# Columns and labels:
# carrageenin oedema = test: Antiinflammatory activity: carrageenin oedema in the rat; assay type: in vivo; conditions: po, 4 h, read-out: OEDEMA INHIBITION % at the fourth hour
# Description: (§1) The activity tests were carried out on male Spra gue-Dawley rats weighing 200+20 g and on male Swiss mice weighing 26+3 g.
# (§2) The test compounds were administered orally by means of gastroesophageal tube, in the form of a suspen sion in a 10 ml/kg mucilage of 5% gum arabic; and intraperitoneally in the form of an aqueous suspen sion added with a few drops of Tween 80, in the con stant volume of 10 ml/kg.
# The compounds under test and the control ones were administered orally one hour before the injection of 0.1 ml of 1% carrageenin in the right paw of the animals.
# The volume of the paw was measured by means of a plethysmograph immediately before the injection and 2, 4 and 6 hours after.
# The results were expressed as percentage inhibi tion of the oedema in the treated animals in comparison with the control animals, at the time of the maximum oedema development (fourth hour after the carrageenin injection).
# [1] = test system: Writhing test induced by phenyl-benzoquinone; test: Phenylbenzoquinone writhing test in the rat; assay type: in vivo
# Description: as §1, §2
# acetic acid peritonitis = test: Anti-exudative activity: acetic acid peritonitis in the rat; assay type: in vivo; conditions: for PERITONEAL EXUDATE ml ± E.S.: controls 2.91 ± 0.12; for anti-exudative activity: oral dose of 10 mg/kg, result in words; for EXUDATE VOLUME ml ± E.S.: controls 2.58 ± 0.18
# Description: The test was carried out according to the procedure described by Arrigoni-Martelli (Boll.Chim. Far. 107, 29, 1968). This method is based upon the evaluation of the anti-exudative effect of a drug at the peritoneal level, following a intraperitoneal injection of 10 ml/kg of a 0.5% acetic acid solution.
# The compounds under test were administered oral ly one hour before the inflammatory agent; 30 minutes after the treatment the animals were killed and the fluid from the peritoneal cavity was drawn and measured.
# The test compounds were administered by oral route 1 hour before intraperitoneal injection of acetic acid (10 ml/kg of a 0.5% solution).
# The anti-exudative activity was determined on the basis of the peritoneal exudate of the treated animals, in comparison with the controls.
# gastric ulceration = assay type: in vivo, rat; conditions: os; for ULCERA-TION DEGREE: scale 0 to 4
# Description: To rats fasted for 18 hours, with water ad libitum, were administered the compounds under test at "0" time and after 2 hours. Control rats were treated with established anti-inflammatory agents.
# 6 Hours after the beginning of the test, the animals were killed by ether inhalation.
# Gastric ulceration was assessed on the ground of values ranging from 0 to 4: • 0 = no ulceration; • 1 = slight iperhaemia and/or a few ulcers; • 2 = severe iperhaemia and many punctiform ulcers; • 3 = severe submucosal hemorrage, one large ulcer and many punctiform ulcers; • 4 severe submucosal hemorrage and many large ulcers.
# The ulcerogenic index was measured by the following formula (Lwoff. J.M., J. Pharmacol., 2, 81, 1971): [formula]
# [2] = test system: phenylbenzoquinone writhing test; test: Phenylbenzoquinone writhing test in the mouse (ED50 and duration of effect); assay type: in vivo; conditions: for % INHI-BITION / N° OF WRITHES IN 10' ml ± E.S.: Table 6, oral, one hour before the test; for N° OF WRITHES IN 10' ml ± E.S.: controls 52.4 ± 1.69; for % INHIBITION / Nº OF WRITHES IN 10' ml ± E.S.: Table 7, oral 1 mg/kg; for Nº OF WRITHES IN 10' ml ± E.S.: controls 53.2 ± 1.26
# Description: The analgesic effect was determined by the number of writhes of the abdomen recorded during 10 minutes (from 5 to 15 minutes after the phenylbenzo quinone injection).
# Carrageenin pleuritis = Carrageenin pleuritis in the rat; assay type: in vivo; conditions: for EXUDATE VOLUME: 30 min. before carrageenin and 6 hours after, exudate at 18 hours, controls 2.76 ± 0.38
# Description: Compound HA-34 was tested for the protective activity against the exudative pleuritis reaction induced by carrageenin. HA-34 was administered 30 min. before the injection of carrageenin, and 6 hours after it. The experiment was carried out on male Spra- gue-Dawley rats, anestethized with ethyl urethane, which were subjected, in their right pleural cavity, to injection of 1.5 ml of air and then 0.1 ml of a 1% carrageenin solution, in sterile normal saline, according to the procedure by Van Armann et al. (J. Pharmac. Exp. Ther., 150, 328, 1965). Indometha cin and Piroxicam were employed as the control drugs, under the same conditions. 18 Hours after the intrapleuric carrageenin injec tion, the animals were killed by means of ether inhalation, and the pleuric exudate was collected and measured.
# [3] = os, 100 mg/kg, one hour before carrageenin
# [4] = Rattus norvegicus, po, 10 min, os, read-out: % INHIBI-TION
# [5] = Rattus norvegicus, po, Table 4, os, 10 mg/kg
# [6] = 400 mg/kg, at 0 time and after 2 hours, killed at 6 hours
# [7] = 30 min. before phenylbenzoquinone
smiles,measurement,setting,value
"CC(=O)Oc1ccccc1C(=O)O [ASA, Acetylsali cylic acid]",inhibition in vivo at 100 mg/kg,carrageenin oedema,31.4 ± 0.37%
same,inhibition in vivo at 50 mg/kg,"[1]; Rattus norvegicus, po, 10 min, read-out: % INHIBI-TION",40%
same,PERITONEAL EXUDATE ml ± E.S.,"acetic acid peritonitis; Table 4, os, 20 mg/kg",2.76 ± 0.13 mL
same,anti-exudative activity,acetic acid peritonitis,did not display valuable anti-exudat- ing properties
same,% ANIMALS WITH ULCERS,gastric ulceration; 200 mg/kg,78%
same,ULCERA-TION INDEX,gastric ulceration; 200 mg/kg,112
same,ULCERA-TION DEGREE,gastric ulceration; 200 mg/kg,1.5
Cc1nn2c(=O)c3c4c(sc3nc2s1)CCC4 [HA 30],inhibition in vivo at 100 mg/kg,carrageenin oedema; [3],35.6 ± 0.74%
same,inhibition in vivo at 0.5 mg/kg,[1]; [4],15%
same,inhibition in vivo at 5 mg/kg,[1]; [4],36%
same,analgesic action,"[1]; oral doses of 5 and 0.5 mg/kg, result in words",substan tially comparable to the reference compound
same,inhibition in vivo at 10 mg/kg,acetic acid peritonitis; [5],14%
same,PERITONEAL EXUDATE ml ± E.S.,"acetic acid peritonitis; Table 4, os, 10 mg/kg",2.50 ± 0.10 mL
same,anti-exudative activity,acetic acid peritonitis,did not display valuable anti-exudat- ing properties
CCc1nn2c(=O)c3c4c(sc3nc2s1)CCCC4 [HA 32],inhibition in vivo at 100 mg/kg,carrageenin oedema; [3],49.6 ± 0.82%
same,inhibition in vivo at 0.5 mg/kg,[1]; [4],48%
same,inhibition in vivo at 5 mg/kg,[1]; [4],76%
same,inhibition in vivo at 10 mg/kg,acetic acid peritonitis; [5],74%
same,PERITONEAL EXUDATE ml ± E.S.,"acetic acid peritonitis; Table 4, os, 10 mg/kg",0.93 ± 0.14 mL
same,ULCERA-TION INDEX,gastric ulceration; 400 mg/kg,0
same,% ANIMALS WITH ULCERS,gastric ulceration; [6],0%
same,ULCERA-TION DEGREE,gastric ulceration; 400 mg/kg,0
O=c1c2c3c(sc2nc2sc(-c4ccccc4)nn12)CCCC3 [HA 33],inhibition in vivo at 100 mg/kg,carrageenin oedema; [3],39.6 ± 0.76%
same,inhibition in vivo at 0.5 mg/kg,[1]; [4],27%
same,inhibition in vivo at 5 mg/kg,[1]; [4],70%
same,inhibition in vivo at 10 mg/kg,acetic acid peritonitis; [5],68%
same,PERITONEAL EXUDATE ml ± E.S.,"acetic acid peritonitis; Table 4, os, 10 mg/kg",1.04 ± 0.16 mL
same,ULCERA-TION INDEX,gastric ulceration; 400 mg/kg,0
same,% ANIMALS WITH ULCERS,gastric ulceration; [6],0%
same,ULCERA-TION DEGREE,gastric ulceration; 400 mg/kg,0
CCOc1ccccc1-c1nn2c(=O)c3c4c(sc3nc2s1)CCCC4 [HA 36],inhibition in vivo at 100 mg/kg,carrageenin oedema; [3],52.7 ± 0.61%
same,inhibition in vivo at 0.5 mg/kg,[1]; [4],22%
same,inhibition in vivo at 5 mg/kg,[1]; [4],60%
same,inhibition in vivo at 10 mg/kg,acetic acid peritonitis; [5],49%
same,PERITONEAL EXUDATE ml ± E.S.,"acetic acid peritonitis; Table 4, os, 10 mg/kg",1.48 ± 0.10 mL
same,ULCERA-TION INDEX,gastric ulceration; 400 mg/kg,0
same,% ANIMALS WITH ULCERS,gastric ulceration; [6],0%
same,ULCERA-TION DEGREE,gastric ulceration; 400 mg/kg,0
"Cc1cccc(Nc2ccccc2C(=O)O)c1C [MFA, mephenamic acid]",inhibition in vivo at 100 mg/kg,carrageenin oedema; [3],49.2 ± 0.86%
same,inhibition in vivo at 5 mg/kg,[1]; [4],24%
same,inhibition in vivo at 10 mg/kg,"[1]; Rattus norvegicus, po, 10 min, os, 10 mg/kg, read-out: % INHIBI-TION",33%
same,inhibition in vivo at 10 mg/kg,acetic acid peritonitis; [5],6%
same,PERITONEAL EXUDATE ml ± E.S.,"acetic acid peritonitis; Table 4, os, 10 mg/kg",2.60 ± 0.15 mL
same,anti-exudative activity,acetic acid peritonitis,did not display valuable anti-exudat- ing properties
same,% ANIMALS WITH ULCERS,gastric ulceration; 200 mg/kg,50%
same,ULCERA-TION INDEX,gastric ulceration; 200 mg/kg,50
same,ULCERA-TION DEGREE,gastric ulceration; 200 mg/kg,1.0
"CN1C(C(=O)Nc2ccccn2)=C(O)c2ccccc2S1(=O)=O [PIROXICAM, Piroxicam]",inhibition in vivo at 0.1 mg/kg,"acetic acid peritonitis; Rattus norvegicus, po, Table 8, oral, 0.1 mg/kg",24.6%
same,inhibition in vivo at 1 mg/kg,"acetic acid peritonitis; Rattus norvegicus, po, Table 8, oral, 1 mg/kg",51.2%
same,inhibition in vivo at 10 mg/kg,"acetic acid peritonitis; Rattus norvegicus, po, Table 8, oral, 10 mg/kg",80%
same,inhibition in vivo at 20 mg/kg,"acetic acid peritonitis; Rattus norvegicus, po, Table 8, oral, 20 mg/kg",95.2%
same,ED50,"acetic acid peritonitis; Rattus norvegicus, oral administration 1 hour before i.p. acetic acid",0.7 mg/kg
same,EXUDATE VOLUME ml ± E.S.,"acetic acid peritonitis; Table 8, oral, 0.1 mg/kg, 1 hour before acetic acid",1.94 ± 0.08 mL
same,EXUDATE VOLUME ml ± E.S.,"acetic acid peritonitis; Table 8, oral, 0.5 mg/kg",1.37 ± 0.07 mL
same,EXUDATE VOLUME ml ± E.S.,"acetic acid peritonitis; Table 8, oral, 1 mg/kg",1.26 ± 0.06 mL
same,EXUDATE VOLUME ml ± E.S.,"acetic acid peritonitis; Table 8, oral, 10 mg/kg",0.49 ± 0.04 mL
same,EXUDATE VOLUME ml ± E.S.,"acetic acid peritonitis; Table 8, oral, 20 mg/kg",0.12 ± 0.06 mL
same,ED50,"[2]; Mus musculus, 1 h, oral administration one hour before the test, read-out: ED50",1.2 mg/kg
same,% INHI-BITION,[2]; 0.1 mg/kg,11.8%
same,% INHI-BITION,[2]; 0.5 mg/kg,28.4%
same,N° OF WRITHES IN 10' ml ± E.S.,[2]; 0.5 mg/kg,37.5 ± 1.26
same,% INHI-BITION,[2]; 1 mg/kg,54.8%
same,N° OF WRITHES IN 10' ml ± E.S.,[2]; 1 mg/kg,23.7 ± 2.18
same,% INHI-BITION,[2]; 2 mg/kg,61.8%
same,% INHI-BITION,[2]; 5 mg/kg,82.2%
same,N° OF WRITHES IN 10' ml ± E.S.,[2]; 5 mg/kg,9.3 ± 1.44
same,% INHIBITION,[2]; [7],54.5%
same,Nº OF WRITHES IN 10' ml ± E.S.,[2]; [7],24.2 ± 1.62
same,% INHIBITION,[2]; 1 h before phenylbenzoquinone,57.3%
same,Nº OF WRITHES IN 10' ml ± E.S.,[2]; 1 h before phenylbenzoquinone,22.7 ± 2.18
same,% INHIBITION,[2]; 3 h before phenylbenzoquinone,67.6%
same,% INHIBITION,[2]; 4 h before phenylbenzoquinone,63.3%
same,% INHIBITION,[2]; 6 h before phenylbenzoquinone,65.0%
same,% INHIBITION,[2]; 8 h before phenylbenzoquinone,60.1%
same,Nº OF WRITHES IN 10' ml ± E.S.,[2]; 8 h before phenylbenzoquinone,21.2 ± 0.72
same,% INHIBITION,[2]; 24 h before phenylbenzoquinone,57.5%
same,Nº OF WRITHES IN 10' ml ± E.S.,[2]; 24 h before phenylbenzoquinone,22.6 ± 1.37
same,% INHIBITION,[2]; 32 h before phenylbenzoquinone,12.0%
same,% INHIBITION,Carrageenin pleuritis; 5 mg/kg,39.5%
same,EXUDATE VOLUME,Carrageenin pleuritis; 5 mg/kg,1.67 ± 0.33
same,% INHIBITION,Carrageenin pleuritis; 10 mg/kg,64.1%
same,EXUDATE VOLUME,Carrageenin pleuritis; 10 mg/kg,0.99 ± 0.40
